Reference: US20110300234A1, “Methods of Treating Tumor Cells Using RHCC Protein, Fragment or Variant” (priority 2008, published 2011)
No end group written: not given here.

Legend:
[1] = system: primary human tumor cells from ovarian carcinoma patients (OC1-OC3); test: FMCA in primary human tumor cells; format: cell-based; conditions: cell lines and patient samples tested
Experimental: (§1) FaDu is grown in DMEM and 10% heat-inactivated FBS, 0.1 mM MEM non-essential amino acids, 1.2 mM sodium pyruvate, 24 mM HEPES, with penicillin and streptomycin. […]
(§2) Microtitre plates (Nunc, Roskilde, Denmark) are prepared with 20 μl/well of drug solution 10 times the desired concentration. […] A column without drugs serves as a control, and a column with medium serves as a blank FMCA is based on measurements of fluorescence generated from hydrolysis of fluorescein diacetate (FDA) to fluorescein by cells with intact plasma membrane (see Larsson et al, Int. J. Cancer, 50(2):177-85 (1992)). […] Plates are then incubated for 50 min, and fluorescence/well is measured at 538 nm in a scanning fluorometer (Fluoroscan II, Labsystems Oy, Helsinki, Finland). Fluorescence is proportional to the number of viable cells/well. Quality criteria for successful analysis includes a fluorescence signal in control wells of more than 5 times mean blank value and a mean coefficient of variation in control wells of less than 30%. […]

[2] = background statement; cited from earlier work
[3] = system: IFNγ-secreting splenocytes of Balb/c-mice; test: IFN-γ EliSpot assay of splenocytes after RHCC injection; conditions: 7 days after i.v. 0.4 or 0.2 mg RHCC
[4] = system: murine dendritic cells; test: Dendritic cell (DC) maturation assay; format: cell-based, mouse; conditions: 50 μg/ml RHCC, 24 hr, vs unstimulated cells
Experimental: Murine bone marrow-derived dendritic cells (BMDCs) are generated according to Lutz et al, J. Immunol. Methods, 223(1):77-92 (1999), and murine splenic DCs are purified using CD11c (N418) MicroBeads (Miltenyi Biotec, Auburn, Calif., USA) according to the manufacturer. DCs are seeded in 24-well plates (BD Biosciences, San Diego, Calif., USA) at 10^6 cells/ml in R10 medium and mixed with 50 μg/ml RHCC. LPS 1 μg/ml (Sigma-Aldrich, Stockholm, Sweden) is used as positive control. After 24 hr stimulation, DCs are stained with PE-conjugated antibodies to CD40, CD80 and CD86 and FITC-conjugated antibody to MHC Class II I-Ab (BD Biosciences Pharmingen, San Diego, Calif., USA) 30 min at 4° C., washed twice in PBS with 0.1% BSA and analyzed by flow cytometry. IL-12 production is analyzed by ELISA according to the manufacturer (Mabtech, Nacka, Sweden). Plates are coated with 2 μg/ml of anti-IL-12 capture antibody o.n, then after blocking, 100 μl of BMDC culture supernatants are added at dilutions 1:1-1:128 for 2 hr at RT. Plates are thereafter incubated with biotinylated anti-IL-12 antibody 1 hr at room temperature, and the response is visualized as above for ELISA.

[5] = system: 10 cell lines; test: FMCA, statements over the panel of cell lines; format: cell-based, human; conditions: tested concentrations, starting at 3.48 μM, all cell types
Experimental: as §1, §2

[6] = system: Balb/c mice; test: Tolerability in mice after RHCC injection; conditions: after injection with endotoxin purified RHCC
[7] = system: RHCC-specific antibodies in Balb/c-mice; test: ELISA of antibody response to RHCC in sera; format: in vivo, mouse; conditions: 14 days after i.v. 0.4 or 0.2 mg RHCC
Experimental: The antibody response to RHCC in sera from Balb/c-mice collected 14 days after i.v. injection of 0.4 or 0.2 mg RHCC (2 mice/group), or 0.1 M NaCl (one mouse), is measured by ELISA. Microtitre plates (BD Biosciences, San Diego, Calif., USA) are coated with 5 μg/ml RHCC in 0.1 M carbonate-buffer pH 9.6 per well o.n. at 4° C. Plates are blocked in blocking solution (5% milk powder, 0.2% Tween in PBS) for 1 hr at room temperature. Serial dilutions of mouse sera in blocking solution (1:50-1:1350) is added in duplicates to the wells. After 1 hr at room temperature, plates are washed and incubated with secondary alkaline phosphatase (AP) conjugated goat-anti mouse IgG antibody (Sigma-Aldrich, Stockholm, Sweden). Plates are washed and developed with nitrophenylphosphate (pNPP) (Sigma-Aldrich, Stockholm, Sweden) and absorbance is measured at 405 nm in a VersaMax microplate reader (Molecular Devices, Sunnyvale, Calif., USA).

[8] = system: FaDu-cells s.c. in SCID-mice; test: In vivo tumor reduction assay; design: species or system mouse
Excerpt: Mice are palpated and weighed 3 times/week, and euthanized if the tumor diameter exceeded 10 mm or if weight decreased below 80% of starting weight, according to ethical guidelines.

[9] = system: h-TERT-RPE1 normal epithelial telomerase immortalized cell line; test: Fluorometric microculture cytotoxicity assay (FMCA); format: cell-based, human; conditions: h-TERT-RPE1, FMCA 72 hr, highest concentration tested 10 μM; read-out: IC50 (95% confidence interval)
[10] = system: FaDu head and neck squamous cell carcinoma cell line; test: as above; format: cell-based, human; conditions: FMCA 72 hr, cisplatin concentration, read-out: IC50 (95% confidence interval)
Experimental: (§3) FaDu is grown in DMEM and 10% heat-inactivated FBS, 0.1 mM MEM non-essential amino acids, 1.2 mM sodium pyruvate, 24 mM HEPES, with penicillin and streptomycin. MDA 231, a breast cancer cell line, RPMI 8226, a myeloma cell line, its resistant sub-line 8226/Dox40, NCI-H69, a small lung cancer cell line, its resistant sub-line H69AR, ACHN, a primary resistant renal adenocarcinoma, the ovarian carcinoma cell line A2780, and its resistant sub-line, A2780-Cis, are all grown in RPMI-1640 with 10% heat-inactivated FCS, 2 mM glutamine, penicillin and streptomycin. hTERT-RPE1 a normal epithelial telomerase immortalized line is grown in DMEM nutrient mixture F-12 Ham with 10% heat-inactivated FCS, 2 mM glutamine, penicillin and streptomycin. Tumor cells obtained from 3 ovarian carcinoma patients (OC1-OC3) after ethical approval (Uppsala University ethical committee) are isolated by collagenase dispersion and Percoll density gradient centrifugation (GE Healthcare Life Sciences, Uppsala, Sweden) (see Csoka et al, Gynecol. Oncol., 54(2):163-70 (1994)). […] For experiments, frozen cells are thawed, washed twice and kept in RPMI 1640.
(§4) Microtitre plates (Nunc, Roskilde, Denmark) are prepared with 20 μl/well of drug solution 10 times the desired concentration. To evaluate the cytotoxic activity, the drug plates are seeded with 2×10^4 cells/180 μl/well. A column without drugs serves as a control, and a column with medium serves as a blank FMCA is based on measurements of fluorescence generated from hydrolysis of fluorescein diacetate (FDA) to fluorescein by cells with intact plasma membrane (see Larsson et al, Int. J. Cancer, 50(2):177-85 (1992)). The plates are incubated at 37° C. for 72 hr, washed in PBS, whereafter FDA (dissolved in PBS, 10 μg/ml) is added at 100 μl/well. Plates are then incubated for 50 min, and fluorescence/well is measured at 538 nm in a scanning fluorometer (Fluoroscan II, Labsystems Oy, Helsinki, Finland). Fluorescence is proportional to the number of viable cells/well. Quality criteria for successful analysis includes a fluorescence signal in control wells of more than 5 times mean blank value and a mean coefficient of variation in control wells of less than 30%. Experiments were repeated 3 times.
(§5) FMCA data is processed by GraphPad Prism (GraphPad Software, Inc. San Diego, Calif.) with non-linear regression to a standard sigmoidal dose-response model. Zero and 100% cell survival are set as the maximum effect and the baseline, and IC50 (inhibitory concentration 50%) is estimated. For drugs not resulting in 50% reduction of cell survival, the IC50 was set to>the highest concentration tested.

[11] = system: NCI-H69 small-cell lung cancer cell line; test: as above; format: cell-based, human; conditions: NCI-H69, FMCA 72 hr, highest concentration tested 10 μM; read-out: IC50 (95% confidence interval)
Experimental: as §3, §4, §5

[12] = system: RPMI 8226/S myeloma cell line; test: as above; format: cell-based, human; conditions: FMCA 72 hr, cisplatin concentration, read-out: IC50 (95% confidence interval)
Experimental: as §3, §4, §5

[13] = system: A2780cis resistant ovarian carcinoma sub-line; test: as above; format: cell-based, human; conditions: FMCA 72 hr, highest concentration tested 10 μM, read-out: IC50 (95% confidence interval)
Experimental: as §3, §4, §5

[14] = system: A2780 ovarian carcinoma cell line; test: as above; format: cell-based, human; conditions: A2780, FMCA 72 hr, highest concentration tested 10 μM; read-out: IC50 (95% confidence interval)
Experimental: as §3, §4, §5

[15] = system: MDA 231 breast cancer cell line; test: as above; format: cell-based, human; conditions: MDA 231, FMCA 72 hr, cisplatin concentration; read-out: IC50 (95% confidence interval)
Experimental: as §3, §4, §5

[16] = system: 8226/dox40 resistant myeloma sub-line; test: as above; format: cell-based, human; conditions: 8226/dox40, FMCA 72 hr, cisplatin concentration; read-out: IC50 (95% confidence interval)
Experimental: as §3, §4, §5

[17] = system: H69AR resistant small-cell lung cancer sub-line; test: as above; format: cell-based, human; conditions: FMCA 72 hr, cisplatin concentration, read-out: IC50 (95% confidence interval)
Experimental: as §3, §4, §5

[18] = system: ACHN renal adenocarcinoma cell line; test: as above; format: cell-based, human; conditions: FMCA 72 hr, cisplatin concentration, read-out: IC50 (95% confidence interval)
Experimental: as §3, §4, §5

Molecule: RHCC: Recombinant Right-Handed Coiled-Coil protein tetramer of Tetrabrachion (Staphylothermus marinus), strands of SEQ ID NO:1, purified from endotoxins (GSIINETADDIVYRLTVIIDDRYESLKNLITLRADRLEMIINDNVSTILASI; also: tetramer)
- cytotoxic effect of RHCC alone [1]: no cytotoxic effect
- temperature at which stable [2]: over 100 °C
- IFNγ-EliSpot T cell response [3]: slight production of specific CD8+ T cells
- CD40 expression [4]: weak increase
- IL-12 production [4]: weak increase
- maturation markers CD80, CD86 and MHC Class II [4]: no increase
- toxicity of RHCC alone [5]: nontoxic
- signs of illness (viability, weight) [6]: no signs of illness
- RHCC-specific antibody response (ELISA) [7]: no significant antibody response
- tumor reduction, RHCC alone ([8]; 0.675 mg RHCC, separate experiment): no effect on tumor reduction

Molecule: N.N.[Cl][Pt][Cl] [Cisplatin, Cis-diammine-dichloroplatinum (II)]
- IC50 [9]: > 10 µM
- IC50 [10]: 7.9 µM
- IC50 [11]: > 10 µM
- IC50 [12]: 7.44 µM
- IC50 [13]: > 10 µM
- IC50 [14]: > 10 µM
- IC50 [15]: > 10 µM
- IC50 [16]: > 10 µM
- IC50 [17]: 8.5 µM
- IC50 [18]: 6.9 µM
- alteration in weight ([8]; i.v., during the experiment): no significant alteration in weight
